# Source: PubChem BioAssay (NCI)
#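 Briefly, cells in 96-well plates were exposed to five compound concentrations for 48 h, and endpoints were estimated by linear interpolation. TGI marks complete inhibition of growth.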
# Columns and labels:
# Assay in all cases: inhibition of tumour cell growth, NCI panel, 48 h
# OVCAR-4 ovarian = test system: OVCAR-4 ovarian
# RXF 393 renal = test system: RXF 393 renal
# MALME-3M melanoma = test system: MALME-3M melanoma
# UACC-257 melanoma = test system: UACC-257 melanoma
# SK-MEL-5 melanoma = test system: SK-MEL-5 melanoma
# HL-60(TB) leukemia = test system: HL-60(TB) leukemia
# HS 578T breast = test system: HS 578T breast
# SK-MEL-28 melanoma = test system: SK-MEL-28 melanoma
# TK-10 renal = test system: TK-10 renal
# OVCAR-5 ovarian = test system: OVCAR-5 ovarian
# NCI/ADR-RES ovarian = test system: NCI/ADR-RES ovarian
# SR leukemia = test system: SR leukemia
# COLO 205 colon = test system: COLO 205 colon
# OVCAR-8 ovarian = test system: OVCAR-8 ovarian
# HOP-92 NSCLC = test system: HOP-92 NSCLC
# SF-295 CNS = test system: SF-295 CNS
# M14 melanoma = test system: M14 melanoma
# UO-31 renal = test system: UO-31 renal
# K-562 leukemia = test system: K-562 leukemia
# SNB-75 CNS = test system: SNB-75 CNS
SMILES,TGI (OVCAR-4 ovarian) [µM],TGI (RXF 393 renal) [µM],TGI (MALME-3M melanoma) [µM],TGI (UACC-257 melanoma) [µM],TGI (SK-MEL-5 melanoma) [µM],TGI (HL-60(TB) leukemia) [µM],TGI (HS 578T breast) [µM],TGI (SK-MEL-28 melanoma) [µM],TGI (TK-10 renal) [µM],TGI (OVCAR-5 ovarian) [µM],TGI (NCI/ADR-RES ovarian) [µM],TGI (SR leukemia) [µM],TGI (COLO 205 colon) [µM],TGI (OVCAR-8 ovarian) [µM],TGI (HOP-92 NSCLC) [µM],TGI (SF-295 CNS) [µM],TGI (M14 melanoma) [µM],TGI (UO-31 renal) [µM],TGI (K-562 leukemia) [µM],TGI (SNB-75 CNS) [µM]
CN(C)/C=C(\C(=O)c1ccccc1)n1nc(-c2ccccc2)cc1-c1ccccc1,> 10,> 10,> 10,> 10,> 10,> 10,> 10,> 10,> 10,> 10,> 10,> 10,> 10,> 10,> 10,> 10,> 10,–,–,–
COc1ccc(OC)c(-c2nc3ccccc3c(=O)[nH]2)c1,> 100,> 100,> 100,> 100,> 100,–,> 100,–,–,> 100,> 100,> 100,> 100,> 100,–,> 100,> 100,> 100,> 100,> 100
CC(C)[Si](OC1=C(C(=O)N(C)c2ccccc2Cl)CCCC1)(C(C)C)C(C)C,28.9,30.1,26.4,24.1,27.5,–,30.7,37.4,29.5,26.3,29.6,24.1,29.3,30.2,26.3,20.9,30.2,27.6,> 100,27.5
Cc1c2cccc-2ccc2c1[nH]c1ccc(Br)cc12,6.62,–,21.5,> 100,13.4,> 100,94.3,24,32.2,16.7,38.4,> 100,4.33,22.4,9.94,15.7,20.9,18.6,11.8,7.89
CN(C)CCCNc1ccnc2cc([N+](=O)[O-])ccc12,12.8,26.3,11.4,27.7,24.1,–,40.4,97.5,65.4,42.4,50,> 100,7.9,46.1,8.13,54.9,24.4,44.8,> 100,48.9
CSCCCNC(=O)c1csc(-c2csc(CCN)n2)n1,> 100,> 100,> 100,> 100,> 100,> 100,> 100,> 100,> 100,> 100,> 100,> 100,> 100,> 100,> 100,> 100,> 100,> 100,> 100,–
O=C1CSC(c2ccc(Cl)cc2)N1c1ccc(-c2ccc(-n3c(-c4ccccc4)nc4ccccc4c3=O)cc2)cc1 (configuration not stated),56.8,–,> 100,> 100,> 100,> 100,> 100,> 100,> 100,–,82.5,> 100,> 100,> 100,97.9,> 100,> 100,59.5,> 100,26.6
O=C1C[C@@H](Sc2ccccc2)C2(OCCO2)[C@H]2ON3CCC[C@@H]3[C@@H]12,19.6,–,4.31,29.3,–,6.08,13.1,23,19.3,–,31.2,10.4,6.32,5.57,11.4,26.7,4.58,4.12,13.8,–
CN1C(=O)c2c(c3c4ccccc4n(C4OC(CO)C(O)C(O)C4O)c3c3[nH]c4ccccc4c23)C1=O (configuration not stated),6.36,8.96,1.44,7.36,3.29,–,21.6,8.43,13.7,6.67,49.9,1.2,6.79,4.19,5.86,10.9,6.13,6.6,> 100,15.9
COCOCC1CCCN1CN1CCC[C@H]1COCOC (some centres not stated),> 100,–,–,> 100,> 100,61.3,> 100,> 100,> 100,> 100,> 100,> 100,> 100,> 100,> 100,> 100,> 100,> 100,> 100,> 100
O=C(Cc1ccccc1)NNc1nc(NNC(=O)c2ccncc2)nc(Nc2ccccc2)n1,> 10,–,> 10,> 10,–,> 10,> 10,> 10,> 10,–,> 10,> 10,> 10,> 10,> 10,–,> 10,> 10,> 10,> 10
O=C1c2cscc2C(=O)C1(O)O,> 100,–,54.8,65.1,> 100,72.5,> 100,> 100,> 100,> 100,> 100,49.3,36.7,> 100,> 100,> 100,45.5,49.1,> 100,–
COc1ccc2oc(=O)c3c(c2c1C)OC(C)(C)C=C3,–,–,> 100,> 100,> 100,> 100,> 100,> 100,> 100,> 100,> 100,> 100,> 100,> 100,–,> 100,> 100,> 100,> 100,> 100
Nc1ccc(Nc2c3ccccc3nc3ccccc23)cc1,> 10,> 10,8.96,> 10,> 10,> 10,> 10,> 10,> 10,> 10,> 10,> 10,> 10,> 10,–,> 10,> 10,–,> 10,–
COc1ccc(OC)c(C#Cc2ccc(OC)c(C(=O)NCCc3ccc(F)cc3)c2)c1,> 100,–,–,> 100,> 100,> 100,> 100,–,> 100,> 100,> 100,> 100,> 100,> 100,–,> 100,> 100,> 100,> 100,–
CC[C@H](C)C1=C(O)[N@+]2([O-])Oc3ccc(-c4c(O)c(O)c(-c5ccc(OC(C)=O)cc5)c(OC(C)=O)c4OC(C)=O)cc3O[C@]2([C@@H](C)CC)C(=O)N1O,31.5,> 50,> 50,> 50,> 50,> 50,> 50,> 50,> 50,> 50,> 50,33,> 50,> 50,45.8,> 50,> 50,> 50,31.5,–
Cc1ccc(C(CC(=O)C(C)(C)CN2CCCCC2)SCCS(=O)(=O)O)cc1 (configuration not stated),84.3,57.1,73.2,–,46.5,–,68.9,–,86,> 100,84.9,45.3,35.3,65.4,42.3,73.4,50.1,65.3,51.4,96.4
Cc1ccsc1C(=O)C(CC(=O)c1cccs1)c1ccsc1 (configuration not stated),> 100,> 100,> 100,> 100,> 100,–,> 100,> 100,> 100,> 100,> 100,> 100,> 100,> 100,> 100,> 100,> 100,> 100,> 100,> 100
COc1c(C)c(C/C=C(\C)CCCCO)c(OC)c(OC)c1OC,> 100,> 100,–,> 100,> 100,–,> 100,–,> 100,> 100,> 100,> 100,> 100,> 100,> 100,> 100,> 100,> 100,> 100,> 100
CCN1C(=O)c2ccccc2C1(O)c1ccc(Cl)cc1 (configuration not stated),> 100,–,–,> 100,> 100,> 100,> 100,> 100,> 100,> 100,> 100,> 100,> 100,> 100,> 100,63.2,> 100,> 100,> 100,–
